According to patent US20250304620A1, “ANTIMICROBIAL PEPTIDE AND APPLICATION THEREOF” (priority 2023, published 2025):
≈ marks a conversion by molar mass, not a printed value. Marks after values point to notes of the source that are not given here. Non-standard residues stand in square brackets, D forms with d. Residues, ends and D or L forms follow the SMILES beside them. dPhe(3,4-F2) = N[C@H](Cc1ccc(F)c(F)c1)C(=O)O; dPhe(4-Cl) = N[C@H](Cc1ccc(Cl)cc1)C(=O)O; dPhe(4-F) = N[C@H](Cc1ccc(F)cc1)C(=O)O

Tests used:
[1] = system: Bacillus subtilis ATCC 6633; assay type: cell-based
Summary of the method: (§1)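 Minimum inhibitory concentration served as the read-out, obtained with a twofold serial dilution microdilution method run per CLSI guidelines and performed in five parallel replicates.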

[2] = system: Candida albicans ATCC MYA-2876; assay type: cell-based
Summary of the method: as §1

[3] = system: Candida glabrata ATCC 15126; assay type: cell-based
Summary of the method: as §1

[4] = system: Candida krusei ATCC 6258; assay type: cell-based
Summary of the method: as §1

[5] = system: Candida tropicalis ATCC 750; assay type: cell-based
Summary of the method: as §1

[6] = system: Candida utilis ATCC 9950; assay type: cell-based
Summary of the method: as §1

[7] = system: Corynebacterium ATCC 7715; assay type: cell-based
Summary of the method: as §1

[8] = system: Enterococcus ATCC 29212; assay type: cell-based
Summary of the method: as §1

[9] = system: Escherichia coli ATCC 25922; assay type: cell-based
Summary of the method: as §1

[10] = system: Klebsiella pneumoniae ATCC 700603; assay type: cell-based
Summary of the method: as §1

[11] = system: Pseudomonas aeruginosa ATCC 27853; assay type: cell-based
Summary of the method: as §1

[12] = system: Salmonella typhimurium ATCC 14028; assay type: cell-based
Summary of the method: as §1

[13] = system: Serratia marcescens ATCC 29021; assay type: cell-based
Summary of the method: as §1

[14] = system: Staphylococcus aureus ATCC 25923; assay type: cell-based
Summary of the method: as §1

[15] = system: Trichophyton ATCC MYA-4438; assay type: cell-based
Summary of the method: as §1

[16] = system: Methicillin-resistant Staphylococcus aureus (MRSA); assay type: cell-based; conditions: Methicillin-resistant
Summary of the method: (§2)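 Five parallel experiments per strain; values are MICs from CLSI-standard broth microdilution of peptides in twofold steps.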

[17] = system: carbapenem-resistant Escherichia coli (CREC); assay type: cell-based; conditions: carbapenem-resistant (CREC)
Summary of the method: as §2

[18] = system: carbapenem-resistant Klebsiella pneumoniae (CRKP); assay type: cell-based; conditions: carbapenem-resistant (CRKP)
Summary of the method: as §2

[19] = system: carbapenem-resistant Pseudomonas aeruginosa (CRPA); assay type: cell-based; conditions: carbapenem-resistant (CRPA)
Summary of the method: as §2

[20] = system: vancomycin-resistant Enterococcus (VRE); assay type: cell-based
Summary of the method: as §2

[21] = system: Staphylococcus aureus (NRS 384); conditions: NRS 384, 3 h
Procedure: Trypsin (250 U/mg, pH=8.0) and AMPs (LV-1 to LV-30) were mixed in a ratio of 1:10 (w/w) and added to a reaction buffer (0.2 M sodium phosphate, 1 mM CaCl2), pH 7.5), and then incubated at 37° C. for 3 h.

[22] = system: Pseudomonas aeruginosa ATCC 27853; experiment: Injectable formulations on mice infected with peritonitis; assay type: in vivo, ICR mice; conditions: twice a day for 3 days; for Number of mice that died on each day after infection: day 1 / Number of mice that died on each day after infection: day 2 / Number of mice that died on each day after infection: day 3 / Number of mice that died on each day after infection: day 4 / Number of mice that died on each day after infection: day 5 / Average survival times (Days): n = 10; for Average survival times (Days): observed for 14 d
Summary of the method: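 Survival readout: deaths and survival time tracked for 14 d. Treatment was tail-vein injection by body weight, twice a day for 3 consecutive days, starting right after intraperitoneal challenge with 0.2 mL of 1×10^9 CFU/mL P. aeruginosa ATCC 27853 in male and female ICR mice.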

[23] = Serum stability assay (residual level by RP-HPLC); conditions: human

CC(=O)N[C@H](CCCNC(=N)N)C(=O)N[C@H](CCCCN)C(=O)N[C@H](CC(C)C)C(=O)N[C@H](CC(C)C)C(=O)N[C@H](Cc1ccc(F)cc1)C(=O)N[C@H](CCCCN)C(=O)N[C@H](CC(C)C)C(=O)N[C@H](CCCCN)C(=O)N[C@H](Cc1ccc(F)cc1)C(=O)N[C@H](CCCCN)C(=O)N[C@H](CCCNC(=N)N)C(N)=O [LV-5] (Ac-[dR][dK][dL][dL][dPhe(4-F)][dK][dL][dK][dPhe(4-F)][dK][dR]-NH2)
MIC Bacillus subtilis ATCC 6633 [1]: 4 mg/L (≈ 2.57 µM)
MIC Candida albicans ATCC MYA-2876 [2]: 8 mg/L (≈ 5.15 µM)
MIC Candida glabrata ATCC 15126 [3]: 16 mg/L (≈ 10.3 µM)
MIC Candida krusei ATCC 6258 [4]: 4 mg/L (≈ 2.57 µM)
MIC Candida tropicalis ATCC 750 [5]: 8 mg/L (≈ 5.15 µM)
MIC Candida utilis ATCC 9950 [6]: 16 mg/L (≈ 10.3 µM)
MIC Corynebacterium ATCC 7715 [7]: 4 mg/L (≈ 2.57 µM)
MIC Enterococcus ATCC 29212 [8]: 2 mg/L (≈ 1.29 µM)
MIC Escherichia coli ATCC 25922 [9]: 4 mg/L (≈ 2.57 µM)
MIC Klebsiella pneumoniae ATCC 700603 [10]: 2 mg/L (≈ 1.29 µM)
MIC Pseudomonas aeruginosa ATCC 27853 [11]: 2 mg/L (≈ 1.29 µM)
MIC Salmonella typhimurium ATCC 14028 [12]: 4 mg/L (≈ 2.57 µM)
MIC Serratia marcescens ATCC 29021 [13]: 2 mg/L (≈ 1.29 µM)
MIC Staphylococcus aureus ATCC 25923 [14]: 1 mg/L (≈ 0.644 µM)
MIC Trichophyton ATCC MYA-4438 [15]: 4 mg/L (≈ 2.57 µM)
MIC MRSA [16]: 4 mg/L (≈ 2.57 µM)
MIC CREC [17]: 8 mg/L (≈ 5.15 µM)
MIC CRKP [18]: 4 mg/L (≈ 2.57 µM)
MIC CRPA [19]: 4 mg/L (≈ 2.57 µM)
MIC VRE [20]: 8 mg/L (≈ 5.15 µM)
Trypsin MIC [21]: 1 mg/L
Number of mice that died on each day after infection: day 1 ([22]; 1 mg/kg via tail vein): 1 Mouse
Number of mice that died on each day after infection: day 2 ([22]; 1 mg/kg via tail vein): 1 Mouse
Number of mice that died on each day after infection: day 3 ([22]; 1 mg/kg via tail vein): 1 Mouse
Number of mice that died on each day after infection: day 4 ([22]; 1 mg/kg via tail vein): 0 Mouse
Number of mice that died on each day after infection: day 5 ([22]; 1 mg/kg via tail vein): 1 Mouse
Average survival times (Days) ([22]; 1 mg/kg via tail vein): 9.5*** Days
remaining at 12 h, 0.91 mg/mL [23]: 98.2%

CC(=O)N[C@H](CCCNC(=N)N)C(=O)N[C@H](CCCCN)C(=O)N[C@H](CC(C)C)C(=O)N[C@H](CC(C)C)C(=O)N[C@H](Cc1ccc(F)c(F)c1)C(=O)N[C@H](CCCCN)C(=O)N[C@H](CC(C)C)C(=O)N[C@H](CCCCN)C(=O)N[C@H](Cc1ccc(F)c(F)c1)C(=O)N[C@H](CCCCN)C(=O)N[C@H](CCCNC(=N)N)C(N)=O [LV-6] (Ac-[dR][dK][dL][dL][dPhe(3,4-F2)][dK][dL][dK][dPhe(3,4-F2)][dK][dR]-NH2)
MIC Bacillus subtilis ATCC 6633 [1]: 4 mg/L (≈ 2.52 µM)
MIC Candida albicans ATCC MYA-2876 [2]: 16 mg/L (≈ 10.1 µM)
MIC Candida glabrata ATCC 15126 [3]: 8 mg/L (≈ 5.03 µM)
MIC Candida krusei ATCC 6258 [4]: 4 mg/L (≈ 2.52 µM)
MIC Candida tropicalis ATCC 750 [5]: 4 mg/L (≈ 2.52 µM)
MIC Candida utilis ATCC 9950 [6]: 8 mg/L (≈ 5.03 µM)
MIC Corynebacterium ATCC 7715 [7]: 2 mg/L (≈ 1.26 µM)
MIC Enterococcus ATCC 29212 [8]: 2 mg/L (≈ 1.26 µM)
MIC Escherichia coli ATCC 25922 [9]: 1 mg/L (≈ 0.629 µM)
MIC Klebsiella pneumoniae ATCC 700603 [10]: 4 mg/L (≈ 2.52 µM)
MIC Pseudomonas aeruginosa ATCC 27853 [11]: 1 mg/L (≈ 0.629 µM)
MIC Salmonella typhimurium ATCC 14028 [12]: 2 mg/L (≈ 1.26 µM)
MIC Serratia marcescens ATCC 29021 [13]: 8 mg/L (≈ 5.03 µM)
MIC Staphylococcus aureus ATCC 25923 [14]: 1 mg/L (≈ 0.629 µM)
MIC Trichophyton ATCC MYA-4438 [15]: 8 mg/L (≈ 5.03 µM)
MIC MRSA [16]: 4 mg/L (≈ 2.52 µM)
MIC CREC [17]: 2 mg/L (≈ 1.26 µM)
MIC CRKP [18]: 8 mg/L (≈ 5.03 µM)
MIC CRPA [19]: 8 mg/L (≈ 5.03 µM)
MIC VRE [20]: 2 mg/L (≈ 1.26 µM)
Trypsin MIC [21]: 1 mg/L
Number of mice that died on each day after infection: day 1 ([22]; 0.2 mg/kg via tail vein): 2 Mouse
Number of mice that died on each day after infection: day 2 ([22]; 0.2 mg/kg via tail vein): 2 Mouse
Number of mice that died on each day after infection: day 3 ([22]; 0.2 mg/kg via tail vein): 1 Mouse
Number of mice that died on each day after infection: day 4 ([22]; 0.2 mg/kg via tail vein): 0 Mouse
Number of mice that died on each day after infection: day 5 ([22]; 0.2 mg/kg via tail vein): 0 Mouse
Average survival times (Days) ([22]; 0.2 mg/kg via tail vein): 7.9** Days
Number of mice that died on each day after infection: day 1 ([22]; 1 mg/kg via tail vein): 1 Mouse
Number of mice that died on each day after infection: day 2 ([22]; 1 mg/kg via tail vein): 1 Mouse
Number of mice that died on each day after infection: day 3 ([22]; 1 mg/kg via tail vein): 0 Mouse
Number of mice that died on each day after infection: day 4 ([22]; 1 mg/kg via tail vein): 1 Mouse
Number of mice that died on each day after infection: day 5 ([22]; 1 mg/kg via tail vein): 0 Mouse
Average survival times (Days) ([22]; 1 mg/kg via tail vein): 10.5**** Days
Number of mice that died on each day after infection: day 1 ([22]; 5 mg/kg via tail vein): 1 Mouse
Number of mice that died on each day after infection: day 2 ([22]; 5 mg/kg via tail vein): 2 Mouse
Number of mice that died on each day after infection: day 3 ([22]; 5 mg/kg via tail vein): 1 Mouse
Number of mice that died on each day after infection: day 4 ([22]; 5 mg/kg via tail vein): 0 Mouse
Number of mice that died on each day after infection: day 5 ([22]; 5 mg/kg via tail vein): 0 Mouse
Average survival times (Days) ([22]; 5 mg/kg via tail vein): 9.2*** Days
survival time of mice infected with Pseudomonas aeruginosa ([22]; tail vein, observed 14 d): superior to those of the Levofloxacin group
remaining at 12 h, 0.91 mg/mL [23]: 98%

CC(=O)N[C@H](CCCNC(=N)N)C(=O)N[C@H](CCCCN)C(=O)N[C@H](CC(C)C)C(=O)N[C@H](CC(C)C)C(=O)N[C@H](Cc1ccc(Cl)cc1)C(=O)N[C@H](CCCCN)C(=O)N[C@H](CC(C)C)C(=O)N[C@H](CCCCN)C(=O)N[C@H](Cc1ccc(Cl)cc1)C(=O)N[C@H](CCCCN)C(=O)N[C@H](CCCNC(=N)N)C(N)=O [LV-7] (Ac-[dR][dK][dL][dL][dPhe(4-Cl)][dK][dL][dK][dPhe(4-Cl)][dK][dR]-NH2)
MIC Bacillus subtilis ATCC 6633 [1]: 4 mg/L (≈ 2.52 µM)
MIC Candida albicans ATCC MYA-2876 [2]: 8 mg/L (≈ 5.04 µM)
MIC Candida glabrata ATCC 15126 [3]: 8 mg/L (≈ 5.04 µM)
MIC Candida krusei ATCC 6258 [4]: 8 mg/L (≈ 5.04 µM)
MIC Candida tropicalis ATCC 750 [5]: 8 mg/L (≈ 5.04 µM)
MIC Candida utilis ATCC 9950 [6]: 8 mg/L (≈ 5.04 µM)
MIC Corynebacterium ATCC 7715 [7]: 4 mg/L (≈ 2.52 µM)
MIC Enterococcus ATCC 29212 [8]: 8 mg/L (≈ 5.04 µM)
MIC Escherichia coli ATCC 25922 [9]: 4 mg/L (≈ 2.52 µM)
MIC Klebsiella pneumoniae ATCC 700603 [10]: 2 mg/L (≈ 1.26 µM)
MIC Pseudomonas aeruginosa ATCC 27853 [11]: 2 mg/L (≈ 1.26 µM)
MIC Salmonella typhimurium ATCC 14028 [12]: 4 mg/L (≈ 2.52 µM)
MIC Serratia marcescens ATCC 29021 [13]: 8 mg/L (≈ 5.04 µM)
MIC Staphylococcus aureus ATCC 25923 [14]: 1 mg/L (≈ 0.63 µM)
MIC Trichophyton ATCC MYA-4438 [15]: 8 mg/L (≈ 5.04 µM)
MIC MRSA [16]: 2 mg/L (≈ 1.26 µM)
MIC CREC [17]: 8 mg/L (≈ 5.04 µM)
MIC CRKP [18]: 4 mg/L (≈ 2.52 µM)
MIC CRPA [19]: 2 mg/L (≈ 1.26 µM)
MIC VRE [20]: 4 mg/L (≈ 2.52 µM)
Trypsin MIC [21]: 1 mg/L
Number of mice that died on each day after infection: day 1 ([22]; 1 mg/kg via tail vein): 0 Mouse
Number of mice that died on each day after infection: day 2 ([22]; 1 mg/kg via tail vein): 1 Mouse
Number of mice that died on each day after infection: day 3 ([22]; 1 mg/kg via tail vein): 1 Mouse
Number of mice that died on each day after infection: day 4 ([22]; 1 mg/kg via tail vein): 1 Mouse
Number of mice that died on each day after infection: day 5 ([22]; 1 mg/kg via tail vein): 1 Mouse
Average survival times (Days) ([22]; 1 mg/kg via tail vein): 9.8*** Days
remaining at 12 h, 0.91 mg/mL [23]: 98.9%
